Measured values: patent US20050009924A1 (priority 2003, published 2005)

How the values were obtained:
human hepatoma G2 cells = test: Cytotoxicity assay (XTT colorimetric), Hep G2; assay type: cell-based; details: 48 h of drug exposure
rat glioma C6 cells = test: Cytotoxicity assay (XTT colorimetric), C6 cells; assay type: cell-based; details: 48 h of drug exposure
[1] = tested on: hepatitis B virus transfected hepatoma cell lines, HepG 2.2.15 cells; test: Cytotoxicity assay, 2.2.15 cells; assay type: cell-based, human; details: 48 h of drug exposure
[2] = tested on: transcriptional activity of hTERT; test: SEAP reporter assay of hTERT expression, PhTERT-SEAP (hTERT-BJ1); assay type: cell-based, human; details: PhTERT-SEAP (hTERT-BJ1)
Protocol: (§1) Secreted alkaine phosphatase was used as the reporter system to monitor the transcriptional activity of hTERT. Here, about […] each were grown in 96-well plates and incubated at 37° C. for 24 h and changed with fresh media. Varying amounts of drugs were added and cells were incubated for another 24 h. Culture media were collected and heated at 65° C. for 10 min to inactivate heat-labile phosphatases. An equal amount of SEAP buffer (2 M diethanolamine, 1 mM MgCl2, and 20 mM […]) was added to the media and p-nitrophenyl phosphate was added to a final concentration of 12 mM. Absorptions at 405 nm were taken, and the rate of absorption increase is determined.
(§2) Culture media were changed every 3 days. […] The stable clones were selected using G418.

[3] = tested on: transcriptional activity of hTERT; test: SEAP reporter assay of hTERT expression, PhTERT-SEAP (H1299); assay type: cell-based, human; details: PhTERT-SEAP(hTERT-H1299)
Protocol: as §1, §2

[4] = tested on: non-small-cell lung cancer cells H1299; test: MTT relative viability, PhTERT-SEAP (H1299) cells; details: PhTERT-SEAP(hTERT-H1299)
Protocol: The tetrazolium reagent (MTT; 3-(4,5-di-methylthiazol)-2,5-diphenyl tetrazolium bromide, USB) was designed to yield a colored formazan upon metabolic reduction by viable cells. Approximately […] cells were plated onto each well of a 96-well plate and incubated in 5% CO2 at 37° C. for 24 h. To assess the in vitro cytotoxicity, each compound was dissolved in DMSO and prepared immediately before the experiments and was diluted into the complete medium before addition to cell cultures. Test compounds were then added to the culture medium for designated various concentrations. After 48 h, an amount of 25 μL of MTT was added to each well, and the samples were incubated at 37° C. for 4 h. A 100 μL solution of lysis buffer containing 20% SDS and 50% N,N-dimethylformamide was added to each well and incubated at 37° C. for another 16 h. The absorbency at 550 nm was measured using an ELISA reader.
Non small lung cancer cells H1299 (telomerase positive) were grown in RPMI 1640 media supplemented with 10% fetal bovine serum, 100 units/mL penicillin and 100 mg/mL streptomycin in a humidified atmosphere with 5% CO2 at 37° C. The hTERT immortalized hTERT-BJ1 (BD Biosciences Clontech)^39 were grown in DMEM media supplemented with 10% fetal calf serum, 100 units/mL penicillin and 100 mg/mL streptomycin, 1 mM sodium pyruvate, and 4 mM I-arginine in a humidified atmosphere with 5% CO2 at 37° C. Culture media were changed every 3 days. […] The stable clones derived from H1299 or hTERT-BJ1 were cultured using conditions that are similar to their parental cells.

hTERT-BJ1 cells = test: MTT relative viability, PhTERT-SEAP (hTERT-BJ1) cells; details: PhTERT-SEAP (hTERT-BJ1)

## O=C(Nc1ccc(NC(=O)c2ccccc2)c2c1C(=O)c1ccccc1C2=O)c1ccccc1 [VI4, 1,4-Bisbenzoylamido-9,10-anthracenedione]
Human hepatoma G2 cells
  IC50: > 20 µM
Rat glioma C6 cells
  IC50: > 20 µM
[1]
  IC50: > 20 µM
[2]; 2.2 μM
  Relative SEAP activity (%): (−4) ± 25.7^ %
  SEAP/vibility: −0.04
[2]; 22 μM
  Relative SEAP activity (%): (−10) ± 26.8 ^ %
  SEAP/vibility: −0.14
[2]; 224 μM
  Relative SEAP activity (%): (−41) ± 26.8 ^ %
  SEAP/vibility: −1.10
[3]; 2.2 μM
  Relative SEAP activity (%): 81 ± 3.3%
  SEAP/vibility: 0.74
[3]; 22 μM
  Relative SEAP activity (%): 84 ± 2.6%
  SEAP/vibility: 0.96
[3]; 224 μM
  Relative SEAP activity (%): 80 ± 2.7%
  SEAP/vibility: 2.99
[4]; 2.2 μM
  Relative MTT viability (%): 109 ± 6.0%
[4]; 22 μM
  Relative MTT viability (%): 88 ± 6.2%
[4]; 224 μM
  Relative MTT viability (%): 27 ± 1.8%
hTERT-BJ1 cells; 2.2 μM
  Relative MTT viability (%): 95 ± 4.9%
hTERT-BJ1 cells; 22 μM
  Relative MTT viability (%): 69 ± 3.2%
hTERT-BJ1 cells; 224 μM
  Relative MTT viability (%): 38 ± 2.6%

## O=C(Nc1ccc(NC(=O)c2cccc(Cl)c2)c2c1C(=O)c1ccccc1C2=O)c1cccc(Cl)c1 [VI5, 1,4-Bis(3-chlorobenzoylamido)-9,10-anthracenedione]
Human hepatoma G2 cells
  IC50: > 20 µM
Rat glioma C6 cells
  IC50: > 20 µM
[1]
  IC50: > 20 µM
[2]; 1.9 μM
  Relative SEAP activity (%): 98 ± 10.1%
  SEAP/vibility: 0.99
[2]; 19 μM
  Relative SEAP activity (%): 105 ± 8.8%
  SEAP/vibility: 1.17
[2]; 194 μM
  Relative SEAP activity (%): 89 ± 10.1%
  SEAP/vibility: 1.48
[3]; 1.9 μM
  Relative SEAP activity (%): 110 ± 4.9%
  SEAP/vibility: 1.17
[3]; 19 μM
  Relative SEAP activity (%): 112 ± 6.1%
  SEAP/vibility: 1.10
[3]; 194 μM
  Relative SEAP activity (%): 91 ± 3.0%
  SEAP/vibility: 1.55
[4]; 1.9 μM
  Relative MTT viability (%): 95 ± 11.3%
[4]; 19 μM
  Relative MTT viability (%): 102 ± 8.5%
[4]; 194 μM
  Relative MTT viability (%): 59 ± 4.3%
hTERT-BJ1 cells; 1.9 μM
  Relative MTT viability (%): 99 ± 9.8%
hTERT-BJ1 cells; 19 μM
  Relative MTT viability (%): 90 ± 1.9%
hTERT-BJ1 cells; 194 μM
  Relative MTT viability (%): 60 ± 2.0%

## Cc1cccc(C(=O)Nc2ccc(NC(=O)c3cccc(C)c3)c3c2C(=O)c2ccccc2C3=O)c1 [VI6, 1,4-Bis(3-methylbenzoylamido)-9,10-anthracenedione]
Human hepatoma G2 cells
  IC50: > 20 µM
Rat glioma C6 cells
  IC50: > 20 µM
[1]
  IC50: > 20 µM
[2]; 2.1 μM
  Relative SEAP activity (%): 97 ± 17.1%
  SEAP/vibility: 0.88
[2]; 21 μM
  Relative SEAP activity (%): 78 ± 7.1%
  SEAP/vibility: 0.71
[2]; 210 μM
  Relative SEAP activity (%): 70 ± 5.8%
  SEAP/vibility: 0.69
[3]; 2.1 μM
  Relative SEAP activity (%): 107 ± 4.6%
  SEAP/vibility: 1.06
[3]; 21 μM
  Relative SEAP activity (%): 104 ± 4.0%
  SEAP/vibility: 1.08
[3]; 210 μM
  Relative SEAP activity (%): 99 ± 9.1%
  SEAP/vibility: 1.20
[4]; 2.1 μM
  Relative MTT viability (%): 101 ± 5.6%
[4]; 21 μM
  Relative MTT viability (%): 97 ± 6.2%
[4]; 210 μM
  Relative MTT viability (%): 83 ± 7.8%
hTERT-BJ1 cells; 2.1 μM
  Relative MTT viability (%): 110 ± 2.6%
hTERT-BJ1 cells; 21 μM
  Relative MTT viability (%): 109 ± 4.6%
hTERT-BJ1 cells; 210 μM
  Relative MTT viability (%): 101 ± 6.0%

## O=C(Nc1ccc(NC(=O)c2ccc(Cl)cc2Cl)c2c1C(=O)c1ccccc1C2=O)c1ccc(Cl)cc1Cl [VI8, 1,4-Bis(2,4-dichlorobenzoylamido)-9,10-anthracenedione]
Human hepatoma G2 cells
  IC50: > 20 µM
Rat glioma C6 cells
  IC50: > 20 µM
[1]
  IC50: > 20 µM
[2]; 1.7 μM
  Relative SEAP activity (%): 33 ± 11.2%
  SEAP/vibility: 0.32
[2]; 17 μM
  Relative SEAP activity (%): 25 ± 17.2%
  SEAP/vibility: 0.26
[2]; 171 μM
  Relative SEAP activity (%): 39 ± 12.8%
  SEAP/vibility: 0.52
[3]; 1.7 μM
  Relative SEAP activity (%): 85 ± 7.9%
  SEAP/vibility: 0.80
[3]; 17 μM
  Relative SEAP activity (%): 84 ± 7.1%
  SEAP/vibility: 0.89
[3]; 171 μM
  Relative SEAP activity (%): 87 ± 2.6%
  SEAP/vibility: 1.06
[4]; 1.7 μM
  Relative MTT viability (%): 106 ± 3.9%
[4]; 17 μM
  Relative MTT viability (%): 95 ± 1.3%
[4]; 171 μM
  Relative MTT viability (%): 83 ± 1.2%
hTERT-BJ1 cells; 1.7 μM
  Relative MTT viability (%): 102 ± 3.4%
hTERT-BJ1 cells; 17 μM
  Relative MTT viability (%): 98 ± 7.2%
hTERT-BJ1 cells; 171 μM
  Relative MTT viability (%): 76 ± 4.8%

## O=C(Nc1ccc(NC(=O)c2ccccc2F)c2c1C(=O)c1ccccc1C2=O)c1ccccc1F [VI10, 1,4-Bis(2-fluorobenzoylamido)-9,10-anthracenedione]
Human hepatoma G2 cells
  IC50: > 20 µM
Rat glioma C6 cells
  IC50: > 20 µM
[1]
  IC50: > 20 µM
[2]; 2.0 μM
  Relative SEAP activity (%): 95 ± 8.9%
  SEAP/vibility: 0.90
[2]; 20 μM
  Relative SEAP activity (%): 96 ± 9.8%
  SEAP/vibility: 0.96
[2]; 207 μM
  Relative SEAP activity (%): 79 ± 7.4%
  SEAP/vibility: 0.92
[3]; 2.0 μM
  Relative SEAP activity (%): 105 ± 7.8%
  SEAP/vibility: 0.91
[3]; 20 μM
  Relative SEAP activity (%): 107 ± 11.9%
  SEAP/vibility: 1.03
[3]; 207 μM
  Relative SEAP activity (%): 103 ± 14.4%
  SEAP/vibility: 1.34
[4]; 2.0 μM
  Relative MTT viability (%): 116 ± 2.4%
[4]; 20 μM
  Relative MTT viability (%): 104 ± 6.1%
[4]; 207 μM
  Relative MTT viability (%): 77 ± 2.6%
hTERT-BJ1 cells; 2.0 μM
  Relative MTT viability (%): 106 ± 6.5%
hTERT-BJ1 cells; 20 μM
  Relative MTT viability (%): 105 ± 8.5%
hTERT-BJ1 cells; 207 μM
  Relative MTT viability (%): 86 ± 7.3%

## O=C(Nc1ccc(NC(=O)c2ccccc2[N+](=O)[O-])c2c1C(=O)c1ccccc1C2=O)c1ccccc1[N+](=O)[O-] [VI11, 1,4-Bis(2-nitrobenzoylamido)-9,10-anthracenedione]
Human hepatoma G2 cells
  IC50: > 20 µM
Rat glioma C6 cells
  IC50: > 20 µM
[1]
  IC50: > 20 µM
[2]; 1.8 μM
  Relative SEAP activity (%): 102 ± 33.4%
  SEAP/vibility: 0.92
[2]; 18 μM
  Relative SEAP activity (%): 122 ± 19.5%
  SEAP/vibility: 1.14
[2]; 186 μM
  Relative SEAP activity (%): 114 ± 28.1%
  SEAP/vibility: 1.15
[3]; 1.8 μM
  Relative SEAP activity (%): 105 ± 4.3%
  SEAP/vibility: 1.00
[3]; 18 μM
  Relative SEAP activity (%): 107 ± 7.9%
  SEAP/vibility: 1.06
[3]; 186 μM
  Relative SEAP activity (%): 94 ± 8.0%
  SEAP/vibility: 1.10
[4]; 1.8 μM
  Relative MTT viability (%): 104 ± 6.3%
[4]; 18 μM
  Relative MTT viability (%): 101 ± 4.1%
[4]; 186 μM
  Relative MTT viability (%): 86 ± 5.3%
hTERT-BJ1 cells; 1.8 μM
  Relative MTT viability (%): 110 ± 4.1%
hTERT-BJ1 cells; 18 μM
  Relative MTT viability (%): 107 ± 6.3%
hTERT-BJ1 cells; 186 μM
  Relative MTT viability (%): 99 ± 3.2%

## O=C(Nc1ccc(NC(=O)c2cccc(F)c2)c2c1C(=O)c1ccccc1C2=O)c1cccc(F)c1 [VI12, 1,4-Bis(3-fluorobenzoylamido)-9,10-anthracenedione]
Human hepatoma G2 cells
  IC50: > 20 µM
Rat glioma C6 cells
  IC50: > 20 µM
[1]
  IC50: > 20 µM
[2]; 2.0 μM
  Relative SEAP activity (%): 107 ± 11.9%
  SEAP/vibility: 1.05
[2]; 20 μM
  Relative SEAP activity (%): 108 ± 15.5%
  SEAP/vibility: 1.11
[2]; 207 μM
  Relative SEAP activity (%): 95 ± 13.9%
  SEAP/vibility: 1.12
[3]; 2.0 μM
  Relative SEAP activity (%): 102 ± 2.9%
  SEAP/vibility: 0.98
[3]; 20 μM
  Relative SEAP activity (%): 110 ± 6.5%
  SEAP/vibility: 1.14
[3]; 207 μM
  Relative SEAP activity (%): 106 ± 9.4%
  SEAP/vibility: 1.59
[4]; 2.0 μM
  Relative MTT viability (%): 105 ± 6.8%
[4]; 20 μM
  Relative MTT viability (%): 96 ± 7.4%
[4]; 207 μM
  Relative MTT viability (%): 66 ± 5.5%
hTERT-BJ1 cells; 2.0 μM
  Relative MTT viability (%): 102 ± 1.5%
hTERT-BJ1 cells; 20 μM
  Relative MTT viability (%): 97 ± 2.9%
hTERT-BJ1 cells; 207 μM
  Relative MTT viability (%): 85 ± 2.6%
